Laboratory results published in patent publication US9451771B2, “Compositions and methods to attract the brown marmorated stink bug (BMSB), Halyomorpha halys” (United States of America as Represented by the Secretary of …, priority 2012, dated 2016).

Tested on: brown marmorated stink bug (BMSB), Halyomorpha halys
Assay: Field trials of experimental pheromone constituents, baited black pyramid traps
Assay type: in vivo
Text: Field Bioassays. Field Trials of Experimental Pheromone Constituents: Pyramid traps based on dimensions previously used for native stink bugs (Leskey and Hogmire 2005, Hogmire and Leskey 2006) and for brown marmorated stink bugs (Leskey et al. 2012c) were used for all trials. […] Each panel was 1.22 m high, 52 cm wide at the base, and 7 cm wide at the top. Collection jars were constructed based on previously published dimensions (Hogmire and Leskey 2006) with internal cone opening of 1.6 cm with trimmed wire edging to reduce escape. In addition, a Hercon Vaportape™ II (Hercon Environmental, Emigsville, Pa.) was added as a killing agent to prevent escape from traps. In a preliminary study, addition of a killing agent increased trap captures ˜250%. Traps were deployed ˜5 meters from the border of apple and pear orchards at the Appalachian Fruit Research Station or in the border area between wood lots and row crops in Kearneysville, W. Va., Shepherdstown, W. Va., Keedysville, Md., and Beltsville, Md. Traps were spaced ˜50 meters apart. Traps were baited with compounds identified from headspace collections of male BMSB, synthesized and formulated into gray rubber septa or left unbaited.
Fourteen trials were conducted between 19 Apr. to 20 Oct. 2011 (Table 3) and four trials between 20 Mar. to 10 Oct. 2012 (Table 4). Traps were checked a minimum of twice weekly and the treatments were re-randomized at each collection.
All adults and nymphs were removed from traps and recorded. Hercon Vaportape™ strips were changed at four week intervals and lures were changed at two week intervals. Comparisons of adult and nymphal captures used the SAS GLM procedure to evaluate effect of treatment and replicate followed by Tukey's HSD if the model was significant. Appropriate transformations were used to stabilize normality if needed. The effect of sex was dropped from all models because it was never a significant factor.

[1] = AFRS 2011, Trial One, 19 April-10 May
[2] = AFRS 2011, Trial Seven, 8-19 August
[3] = AFRS 2011, Trial Ten, 19 Sept.-4 Oct.
[4] = Beltsville 2011, Trial One, 19 April-10 May

Q: What does the source list for `CCC\C=C/C=C/C=C/C(=O)OC` [Lure #3, Methyl (2E,4E,6Z)-decatrienoate]?
A: Mean number BMSB adults (±SE) captured [1]: 0.00 ± 0.00 per trap per sample; Mean number BMSB nymphs (±SE) captured [1]: 0.00 ± 0.00 per trap per sample; Mean number BMSB adults (±SE) captured [2]: 1.97 ± 0.37a per trap per sample; Mean number BMSB nymphs (±SE) captured [2]: 34.55 ± 5.85a per trap per sample; Mean number BMSB adults (±SE) captured [3]: 22.76 ± 4.41a per trap per sample; Mean number BMSB nymphs (±SE) captured [3]: 1.24 ± 0.34a per trap per sample; Mean number BMSB adults (±SE) captured [4]: 0.02 ± 0.02ab per treatment; Mean number BMSB nymphs (±SE) captured [4]: 0.00 ± 0.00 per treatment
